Results taken from patent publication US7939556B2, “Imidazole derivatives and their use for modulating the GABAA receptor complex” (Neurosearch A/S, priority 2005, dated 2011).

molecular target: benzodiazepine modulatory unit of the GABAA receptor complex; test: In vitro inhibition of 3H-flunitrazepam (3H-FNM) binding; details: inhibition of specific binding of 3H-FNM (1 nM), rat cerebral cortex membranes, 40 min at 2° C.
Method: In Vitro Inhibition of ^3H-Flunitrazepam (^3H—FNM) Binding
The GABA recognition site and the benzodiazepine modulatory unit can selectively be labelled with ^3H-flunitrazepam.
Preparations are performed at 0-4° C. unless otherwise indicated. Cerebral cortex from male Wistar rats (150-200 g) is homogenised for 5-10 sec in 20 ml Tris-HCl (30 mM, pH 7.4) using an Ultra-Turrax homogeniser. The suspension is centrifuged at 27,000×g for 15 min and the pellet is washed three times with buffer (centrifuged at 27,000×g for 10 min). The washed pellet is homogenized in 20 ml of buffer and incubated on a water bath (37° C.) for 30 min to remove endogenous GABA and then centrifuged for 10 min at 27,000×g. The pellet is then homogenized in buffer and centrifuged for 10 min at 27,000×g. The final pellet is resuspended in 30 ml buffer and the preparation is frozen and stored at −20° C.
The membrane preparation is thawed and centrifuged at 2° C. for 10 min at 27,000×g. The pellet is washed twice with 20 ml 50 mM Tris-citrate, pH 7.1 using an Ultra-Turrax homogeniser and centrifuged for 10 min at 27,000×g. The final pellet is resuspended in 50 mM Tris-citrate, pH 7.1 (500 ml buffer per g of original tissue), and then used for binding assays. Aliquots of 0.5 ml tissue are added to 25 μl of test solution and 25 μl of ^3H—FNM (1 nM, final concentration), mixed and incubated for 40 min at 2° C. Non-specific binding is determined using Clonazepam (1 μM, final concentration). After incubation the samples are added 5 ml of ice-cold buffer and poured directly onto Whatman GF/C glass fibre filters under suction and immediately washed with 5 ml ice-cold buffer. The amount of radioactivity on the filters is determined by conventional liquid scintillation counting. Specific binding is total binding minus non-specific binding.
25-75% inhibition of specific binding must be obtained, before calculation of an IC50.
The test value will be given as IC50 (the concentration (μM) of the test substance which inhibits the specific binding of ^3H—FNM by 50%).
Co is specific binding in control assays, and […]

SMILES	IC50
COC(=O)c1cn(-c2cccc([N+](=O)[O-])c2)cn1 [Compound 20, 1-(3-Nitro-phenyl)-1H-imidazole-4-carboxylic acid methyl ester]	180 nM
CCOC(=O)c1cn(-c2cccc(COCc3ccccn3)c2)cn1 [Compound 11a, 1-[3-(Pyridin-2-ylmethoxymethyl)-phenyl]-1H-imidazole-4-carboxylic acid ethyl ester]	24 nM
CCOC(=O)c1cn(-c2cccc(Br)c2)cn1 [Compound 16, 1-(3-Bromo-phenyl)-1H-imidazole-4-carboxylic acid ethyl ester]	24 nM
